Values after ≈ are worked out from the molar mass of the structure shown.
test system: Talaromyces funiculosus; experiment: Fungicidal activity against Penicillium funiculosum ATCC 36839 incubated for 72 hrs followed by serial sub-cultivation for 72 hrs and measured after 72 hrs by serial dilution method; format: functional; conditions: not given

Row | SMILES | MFC99.5
1 | O=C(NN1C(=O)CSC1c1ccc(Cl)cc1)c1nsc2ccccc12 (configuration not stated) | 20.5 ×10⁻² umol/ml

test system: Trichoderma viride; experiment: Fungicidal activity against Trichoderma viride IAM 5061 incubated for 72 hrs followed by serial sub-cultivation for 72 hrs and measured after 72 hrs by serial dilution method; format: functional; conditions: not given

Row | SMILES | MFC99.5
2 | O=C(NN1C(=O)CSC1c1ccc(Cl)cc1)c1nsc2ccccc12 (configuration not stated) | 5.12 ×10⁻² umol/ml

test system: Staphylococcus aureus; experiment: Antibacterial activity against Staphylococcus aureus ATCC 6538 after 24 hrs by microdilution method; format: functional; conditions: ATCC 6538, 24 h

Row | MIC | SMILES
3 | 205 µM (≈ 79.9 µg/mL) | O=C(NN1C(=O)CSC1c1ccc(Cl)cc1)c1nsc2ccccc12 (configuration not stated)

test system: Salmonella typhimurium; experiment: Antibacterial activity against Salmonella typhimurium ATCC 13311 after 24 hrs by microdilution method; format: functional, Salmonella enterica subsp. enterica serovar Typhimurium; conditions: Salmonella enterica, ATCC 13311, 24 h

Row | MIC | SMILES
4 | 768 µM (≈ 299 µg/mL) | O=C(NN1C(=O)CSC1c1ccc(Cl)cc1)c1nsc2ccccc12 (configuration not stated)

test system: Micrococcus flavus; experiment: Antibacterial activity against Micrococcus flavus ATCC 10240 after 24 hrs by microdilution method; format: functional; conditions: ATCC 10240, 24 h

Row | MIC | SMILES
5 | 384 µM (≈ 150 µg/mL) | O=C(NN1C(=O)CSC1c1ccc(Cl)cc1)c1nsc2ccccc12 (configuration not stated)

test system: Enterobacter cloacae; experiment: Bactericidal activity against Enterobacter cloacae incubated for 24 hrs followed by serial sub-cultivation and measured after 24 hrs by microdilution method; format: functional; conditions: not given

Row | SMILES | MBC99.5
6 | O=C(NN1C(=O)CSC1c1ccc(Cl)cc1)c1nsc2ccccc12 (configuration not stated) | 115.2 ×10⁻² umol/ml

test system: Aspergillus versicolor; experiment: Antifungal activity against Aspergillus versicolor ATCC 11730 after 72 hrs by serial dilution method; format: functional; conditions: ATCC 11730, 72 h

Row | MIC | SMILES
7 | 102 µM (≈ 39.8 µg/mL) | O=C(NN1C(=O)CSC1c1ccc(Cl)cc1)c1nsc2ccccc12 (configuration not stated)

test system: Pseudomonas aeruginosa; experiment: Antibacterial activity against Pseudomonas aeruginosa ATCC 27853 after 24 hrs by microdilution method; format: functional; conditions: ATCC 27853, 24 h

Row | MIC | SMILES
8 | 205 µM (≈ 79.9 µg/mL) | O=C(NN1C(=O)CSC1c1ccc(Cl)cc1)c1nsc2ccccc12 (configuration not stated)

test system: Aspergillus ochraceus; experiment: Fungicidal activity against Aspergillus ochraceus ATCC 12066 incubated for 72 hrs followed by serial sub-cultivation for 72 hrs and measured after 72 hrs by serial dilution method; format: functional; conditions: not given

Row | SMILES | MFC99.5
9 | O=C(NN1C(=O)CSC1c1ccc(Cl)cc1)c1nsc2ccccc12 (configuration not stated) | 20.5 ×10⁻² umol/ml

test system: Staphylococcus aureus; experiment: Bactericidal activity against Staphylococcus aureus ATCC 6538 incubated for 24 hrs followed by serial sub-cultivation and measured after 24 hrs by microdilution method; format: functional; conditions: not given

Row | SMILES | MBC99.5
10 | O=C(NN1C(=O)CSC1c1ccc(Cl)cc1)c1nsc2ccccc12 (configuration not stated) | 38.4 ×10⁻² umol/ml

test system: Aspergillus fumigatus; experiment: Antifungal activity against Aspergillus fumigatus after 72 hrs by serial dilution method; format: functional; conditions: not given

Row | MIC | SMILES
11 | 205 µM (≈ 79.9 µg/mL) | O=C(NN1C(=O)CSC1c1ccc(Cl)cc1)c1nsc2ccccc12 (configuration not stated)

test system: Escherichia coli; experiment: Antibacterial activity against Escherichia coli ATCC 35210 after 24 hrs by microdilution method; format: functional; conditions: ATCC 35210, 24 h

Row | MIC | SMILES
12 | 589 µM (≈ 230 µg/mL) | O=C(NN1C(=O)CSC1c1ccc(Cl)cc1)c1nsc2ccccc12 (configuration not stated)

test system: Listeria monocytogenes; experiment: Bactericidal activity against Listeria monocytogenes NCTC 7973 incubated for 24 hrs followed by serial sub-cultivation and measured after 24 hrs by microdilution method; format: functional; conditions: not given

Row | SMILES | MBC99.5
13 | O=C(NN1C(=O)CSC1c1ccc(Cl)cc1)c1nsc2ccccc12 (configuration not stated) | 76.8 ×10⁻² umol/ml

test system: Penicillium ochrochloron; experiment: Antifungal activity against Penicillium ochrochloron ATCC 9112 after 72 hrs by serial dilution method; format: functional; conditions: ATCC 9112, 72 h

Row | MIC | SMILES
14 | 102 µM (≈ 39.8 µg/mL) | O=C(NN1C(=O)CSC1c1ccc(Cl)cc1)c1nsc2ccccc12 (configuration not stated)

test system: Candida albicans; experiment: Fungicidal activity against Candida albicans incubated for 72 hrs followed by serial sub-cultivation for 72 hrs and measured after 72 hrs by serial dilution method; format: functional; conditions: not given

Row | SMILES | MFC99.5
15 | O=C(NN1C(=O)CSC1c1ccc(Cl)cc1)c1nsc2ccccc12 (configuration not stated) | 20.5 ×10⁻² umol/ml

test system: Aspergillus ochraceus; experiment: Antifungal activity against Aspergillus ochraceus ATCC 12066 after 72 hrs by serial dilution method; format: functional; conditions: ATCC 12066, 72 h

Row | MIC | SMILES
16 | 102 µM (≈ 39.8 µg/mL) | O=C(NN1C(=O)CSC1c1ccc(Cl)cc1)c1nsc2ccccc12 (configuration not stated)

test system: Talaromyces funiculosus; experiment: Antifungal activity against Penicillium funiculosum ATCC 36839 after 72 hrs by serial dilution method; format: functional; conditions: ATCC 36839, 72 h

Row | MIC | SMILES
17 | 102 µM (≈ 39.8 µg/mL) | O=C(NN1C(=O)CSC1c1ccc(Cl)cc1)c1nsc2ccccc12 (configuration not stated)

test system: Bacillus cereus; experiment: Bactericidal activity against Bacillus cereus incubated for 24 hrs followed by serial sub-cultivation and measured after 24 hrs by microdilution method; format: functional; conditions: not given

Row | SMILES | MBC99.5
18 | O=C(NN1C(=O)CSC1c1ccc(Cl)cc1)c1nsc2ccccc12 (configuration not stated) | 38.4 ×10⁻² umol/ml

test system: Salmonella typhimurium; experiment: Bactericidal activity against Salmonella typhimurium ATCC 13311 incubated for 24 hrs followed by serial sub-cultivation and measured after 24 hrs by microdilution method; format: functional, Salmonella enterica subsp. enterica serovar Typhimurium; conditions: not given

Row | SMILES | MBC99.5
19 | O=C(NN1C(=O)CSC1c1ccc(Cl)cc1)c1nsc2ccccc12 (configuration not stated) | 115.2 ×10⁻² umol/ml

test system: Listeria monocytogenes; experiment: Antibacterial activity against Listeria monocytogenes NCTC 7973 after 24 hrs by microdilution method; format: functional; conditions: NCTC 7973, 24 h

Row | MIC | SMILES
20 | 589 µM (≈ 230 µg/mL) | O=C(NN1C(=O)CSC1c1ccc(Cl)cc1)c1nsc2ccccc12 (configuration not stated)

test system: Trichoderma viride; experiment: Antifungal activity against Trichoderma viride IAM 5061 after 72 hrs by serial dilution method; format: functional; conditions: IAM 5061, 72 h

Row | MIC | SMILES
21 | 25.6 µM (≈ 9.98 µg/mL) | O=C(NN1C(=O)CSC1c1ccc(Cl)cc1)c1nsc2ccccc12 (configuration not stated)

test system: Candida albicans; experiment: Antifungal activity against Candida albicans after 72 hrs by serial dilution method; format: functional; conditions: not given

Row | MIC | SMILES
22 | 102 µM (≈ 39.8 µg/mL) | O=C(NN1C(=O)CSC1c1ccc(Cl)cc1)c1nsc2ccccc12 (configuration not stated)

test system: Escherichia coli; experiment: Bactericidal activity against Escherichia coli ATCC 35210 incubated for 24 hrs followed by serial sub-cultivation and measured after 24 hrs by microdilution method; format: functional; conditions: not given

Row | SMILES | MBC99.5
23 | O=C(NN1C(=O)CSC1c1ccc(Cl)cc1)c1nsc2ccccc12 (configuration not stated) | 76.8 ×10⁻² umol/ml

test system: Bacillus cereus; experiment: Antibacterial activity against Bacillus cereus after 24 hrs by microdilution method; format: functional; conditions: not given

Row | MIC | SMILES
24 | 205 µM (≈ 79.9 µg/mL) | O=C(NN1C(=O)CSC1c1ccc(Cl)cc1)c1nsc2ccccc12 (configuration not stated)

test system: Penicillium ochrochloron; experiment: Fungicidal activity against Penicillium ochrochloron ATCC 9112 incubated for 72 hrs followed by serial sub-cultivation for 72 hrs and measured after 72 hrs by serial dilution method; format: functional; conditions: not given

Row | SMILES | MFC99.5
25 | O=C(NN1C(=O)CSC1c1ccc(Cl)cc1)c1nsc2ccccc12 (configuration not stated) | 20.5 ×10⁻² umol/ml

test system: Enterobacter cloacae; experiment: Antibacterial activity against Enterobacter cloacae after 24 hrs by microdilution method; format: functional; conditions: not given

Row | MIC | SMILES
26 | 789 µM (≈ 308 µg/mL) | O=C(NN1C(=O)CSC1c1ccc(Cl)cc1)c1nsc2ccccc12 (configuration not stated)

test system: Pseudomonas aeruginosa; experiment: Bactericidal activity against Pseudomonas aeruginosa ATCC 27853 incubated for 24 hrs followed by serial sub-cultivation and measured after 24 hrs by microdilution method; format: functional; conditions: not given

Row | SMILES | MBC99.5
27 | O=C(NN1C(=O)CSC1c1ccc(Cl)cc1)c1nsc2ccccc12 (configuration not stated) | 76.8 ×10⁻² umol/ml

test system: Aspergillus fumigatus; experiment: Fungicidal activity against Aspergillus fumigatus incubated for 72 hrs followed by serial sub-cultivation for 72 hrs and measured after 72 hrs by serial dilution method; format: functional; conditions: not given

Row | SMILES | MFC99.5
28 | O=C(NN1C(=O)CSC1c1ccc(Cl)cc1)c1nsc2ccccc12 (configuration not stated) | 38.4 ×10⁻² umol/ml

test system: Micrococcus flavus; experiment: Bactericidal activity against Micrococcus flavus ATCC 10240 incubated for 24 hrs followed by serial sub-cultivation and measured after 24 hrs by microdilution method; format: functional; conditions: not given

Row | SMILES | MBC99.5
29 | O=C(NN1C(=O)CSC1c1ccc(Cl)cc1)c1nsc2ccccc12 (configuration not stated) | 76.8 ×10⁻² umol/ml

test system: Aspergillus versicolor; experiment: Fungicidal activity against Aspergillus versicolor ATCC 11730 incubated for 72 hrs followed by serial sub-cultivation for 72 hrs and measured after 72 hrs by serial dilution method; format: functional; conditions: not given

Row | SMILES | MFC99.5
30 | O=C(NN1C(=O)CSC1c1ccc(Cl)cc1)c1nsc2ccccc12 (configuration not stated) | 20.5 ×10⁻² umol/ml

test system: Aspergillus niger; experiment: Antifungal activity against Aspergillus niger ATCC 6275 after 72 hrs by serial dilution method; format: functional; conditions: ATCC 6275, 72 h

Row | MIC | SMILES
31 | 102 µM (≈ 39.8 µg/mL) | O=C(NN1C(=O)CSC1c1ccc(Cl)cc1)c1nsc2ccccc12 (configuration not stated)

test system: Aspergillus niger; experiment: Fungicidal activity against Aspergillus niger ATCC 6275 incubated for 72 hrs followed by serial sub-cultivation for 72 hrs and measured after 72 hrs by serial dilution method; format: functional; conditions: not given

Row | SMILES | MFC99.5
32 | O=C(NN1C(=O)CSC1c1ccc(Cl)cc1)c1nsc2ccccc12 (configuration not stated) | 20.5 ×10⁻² umol/ml

Source: ChEMBL document CHEMBL4257449, “New N-(2-phenyl-4-oxo-1,3-thiazolidin-3-yl)-1,2-benzothiazole-3-carboxamides and acetamides as antimicrobial agents” (2017)
